Results on five compounds are retold here after US7999147B2, “Reduction of odors in absorbent articles” (First Quality Products, Inc., priority 2004, dated 2011).

Where “and” joins values, the source holds several entries; their conditions need not be identical. Equal entries are not always repeated.

The test system of data set [1] is ammonia. The experiment in a line: Ammonia concentration from urine in absorbent structures sprayed with additive solution (gas dosimeter tubes). Details: species or system human. Conditions: 37° C.
The subject of data set [2] is ammonia. The data set can be described thus: Ammonia concentration from urine in absorbent structures containing additive-treated SAP (gas dosimeter tubes). Also noted: species or system human. The following applies: 1.5 g SAP treated with FORESTALL (0.135 g per 13.5 g SAP) + 4.5 g fluff pulp, 37° C., donors X, Y. Here is the method: The following is a detailed description of the test method to measure ammonia concentrations. A series of absorbent structures are prepared according to the following. The base absorbent structure is fluff pulp or a combination of fluff and SAP. Then, for example, an aqueous solution is prepared containing a known quantity of a potential treatment for ammonia malodor. An equal quantity of the solution is sprayed onto all but one of the series of absorbent structures. The spraying is applied as uniformly as possible. One absorbent structure is sprayed with an equal volume of water and is the control. All absorbent structures are left out several hours to dry. Each of the absorbent structures is then transferred to Nalgene® Brand 125-ml, narrow-mouth polycarbonate Erlenmeyer flasks. […]
Straughan® Gastec® ammonia gas dosimeter tubes, grade 3D, are broken off and thereby opened at one end. […] Donors collect a suitable quantity of fresh urine specimen in disposable collection cups marked with volume indications. […]
The flasks are then placed into a water bath set at 37° C. […] Based on discrete markings on the detector tube, the time-weighted average concentration of ammonia measured in parts per million-hour are read from the scale and recorded. […] Readings of ammonia concentrations are read up to 72 hours time or less if any of the concentrations exceed the maximum limit of the detection tube's range. […]

Data set [3] can be described thus: Water solubility of the additive. It is filed as physicochemical. How it is done: Four absorbent structures are made according to Example 4 except onto three structures, 4.5 ml of an aqueous solution containing 1% M-Quat Dimer 18 is sprayed. To dissolve the additive in water, the temperature needed to be raised to about 45-60° C. M-Quat Dimer 18 is the tradename for 2-hydroxypropylene-bis-1,3-(dimethylstearylammonium chloride). […] This chemical is manufactured by BASF Corporation.

[4] abbreviates: 4.5 ml of 1% M-Quat Dimer 18 sprayed on fluff pulp + SAP, urine, donors X, Y.

In the case of “1-propanaminium, 3-amino-N-ethyl-N,N-dimethyl-N-soya acyl derivative, ethyl sulfate”, the “Ammonia Concentration ppm-hour 56 hour reading” value in data set [1] (4.5 ml of 1% 1-propanaminium soya acyl derivative ethyl sulfate sprayed on fluff pulp + SAP, urine, donor Y, 56 hour) was 25 ppm-hour. Further, the “Ammonia Concentration ppm-hour 72 hour reading” value in data set [1] (4.5 ml of 1% 1-propanaminium soya acyl derivative ethyl sulfate sprayed on fluff pulp + SAP, urine, donor Z) worked out at 0 ppm-hour. Besides, the “Ammonia Concentration ppm-hour 8 hour reading” value in data set [1] (4.5 ml of 1% 1-propanaminium soya acyl derivative ethyl sulfate sprayed on fluff pulp + SAP, urine, donors Y, Z) was 0 ppm-hour. Further, the “Ammonia Concentration ppm-hour 24 hour reading” value in data set [1] (4.5 ml of 1% 1-propanaminium soya acyl derivative ethyl sulfate sprayed on fluff pulp + SAP, urine, donors Y, Z, 24 hour) is on record as 0 ppm-hour.

For “4-ethyl-4-soya morpholinium ethyl sulfate [FORESTALL]”, the “Ammonia Concentration ppm-hour 32 hour reading” value in data set [2] is 25 ppm-hour and 30 ppm-hour. For the same compound, in data set [1] (4.5 ml of 1% FORESTALL sprayed on 4.5 g fluff pulp + 1.5 g SAP, fresh urine, donors X, Y, Z), the “Ammonia Concentration ppm-hour 8 hour reading” value amounted to 0 ppm-hour.

On to `CCCCCCCCCCCCCCCCCC[N+](C)(C)CC(O)C[N+](C)(C)CCCCCCCCCCCCCCCCCC.[Cl-].[Cl-]` [M-Quat Dimer 18, 2-hydroxypropylene-bis-1,3-(dimethylstearylammonium chloride)], for which, in data set [1] (setting [4]), the “Ammonia Concentration ppm-hour 8 hour reading” value turned out to be 0 ppm-hour; the “Ammonia Concentration ppm-hour 72 hour reading” value was 250 ppm-hour and 470 ppm-hour and 280 ppm-hour and 400 ppm-hour and 425 ppm-hour. Further, the “Ammonia Concentration ppm-hour 32 hour reading” value in data set [1] (4.5 ml of 1% M-Quat Dimer 18 sprayed on fluff pulp + SAP, urine, donors X, Y, 32 hour) was 12 ppm-hour and 20 ppm-hour and 23 ppm-hour. Further, the “Ammonia Concentration ppm-hour 48 hour reading” value in data set [1] (4.5 ml of 1% M-Quat Dimer 18 sprayed on fluff pulp + SAP, urine, donors X, Y, 48 hour) is 25 ppm-hour and 30 ppm-hour and 50 ppm-hour. Further, in data set [3] (1% aqueous solution), the “Temperature needed to dissolve the additive in water” value is 45-60 °C. In addition, the “Water solubility at 37° C.” value in data set [3] (37° C.) was “not water soluble at 37 °C”.

“ethylbis(hydroxyethyl)tallowalkyl ammonium ethyl sulfate”: the “Ammonia Concentration ppm-hour 8 hour reading” value in data set [1] (4.5 ml of 1% ethylbis(hydroxyethyl)tallowalkyl ammonium ethyl sulfate sprayed on fluff pulp + SAP, urine, donors Z, X) is 0 ppm-hour.

Take “hydrogenated tallowalkyl(2-ethylhexyl)dimethylammonium methyl sulfate [ARQUAD HTL8-MS]”: the “Ammonia Concentration ppm-hour 8 hour reading” value in data set [1] (4.5 ml of 1% ARQUAD HTL8-MS sprayed on fluff pulp + SAP, urine, donors X, Y) is given as 0 ppm-hour.
